The target of series [1] is T1, 5-hydroxytryptamine receptor 1A (Homo sapiens) (UniProt P08908).
T1 sequence (whole entry): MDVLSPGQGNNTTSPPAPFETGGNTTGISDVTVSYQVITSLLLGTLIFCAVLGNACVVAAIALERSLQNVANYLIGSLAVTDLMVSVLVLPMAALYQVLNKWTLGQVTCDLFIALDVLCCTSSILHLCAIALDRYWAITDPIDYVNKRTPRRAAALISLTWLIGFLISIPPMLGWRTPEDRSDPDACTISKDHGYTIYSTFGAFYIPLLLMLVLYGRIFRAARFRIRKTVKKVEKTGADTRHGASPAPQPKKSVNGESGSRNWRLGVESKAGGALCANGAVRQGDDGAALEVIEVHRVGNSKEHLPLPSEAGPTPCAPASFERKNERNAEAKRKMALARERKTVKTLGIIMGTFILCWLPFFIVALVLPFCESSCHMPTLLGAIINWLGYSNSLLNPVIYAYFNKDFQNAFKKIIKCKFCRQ
Description: Displacement of [3H]8-OH-DPAT from recombinant human 5-HT1A receptor expressed in HEK293 cell membranes at 10 uM after 60 mins by TopCount scintillation counting method relative to control. On the technique in general: In a radioligand displacement assay an active substance lowers the binding of a labelled ligand.

Series [2] addresses Sodium-dependent serotonin transporter (Rattus norvegicus) (UniProt P31652). The experiment in a line: Inhibition of [3H]serotonin reuptake in rat brain synaptosomes SERT at 10 uM after 15 mins by TopCount scintillation counting method relative to control. It counts as subcellular.
Series [3] addresses T2, 5-hydroxytryptamine receptor 7 (Homo sapiens, UniProt P34969). Description: Displacement of [3H]LSD from recombinant human 5-HT7 receptor expressed in CHO cell membranes at 10 uM after 120 mins by TopCount scintillation counting method relative to control.
Series [4] addresses Sodium-dependent serotonin transporter (Rattus norvegicus, UniProt P31652). The experiment in a line: Inhibition of [3H]serotonin reuptake in rat brain synaptosomes SERT after 15 mins by TopCount scintillation counting method. It counts as subcellular.
The target of series [5] is T2, 5-hydroxytryptamine receptor 7. Description: Displacement of [3H]LSD from recombinant human 5-HT7 receptor expressed in CHO cell membranes after 120 mins by TopCount scintillation counting method.
The nature of another series: in vitro. Particulars: rat, liver microsomes. For orientation: Microsomes from liver hold many membrane-bound enzymes, among them those of drug oxidation.
Series [6] addresses T3, 5-hydroxytryptamine receptor 1A (Homo sapiens, UniProt P08908).
T3 sequence (P08908 whole entry): T1 sequence (whole entry)
The experiment in a line: Displacement of [3H]8-OH-DPAT from recombinant human 5-HT1A receptor expressed in HEK293 cell membranes after 60 mins by TopCount scintillation counting method.

A short description of series [7]: Clearance in rat liver microsomes at 1 uM in presence of NADPH by LC-MS/MS analysis. The class given is ADME, microsome. The following applies: read-out: CLH.
Series [8] concerns Mus musculus. Description: Antidepressant-like activity in mouse assessed as reduction in immobility time at 40 mg/kg/day, po administered once daily for 7 days measured for 5 mins at 1 hr post last dose by tail suspension test relative to control. It counts as functional. Also noted: scale not given: the % may be the effect or the level left.
Series [9] has as its system Mus musculus. Description: Antidepressant-like activity in po dosed mouse assessed as reduction in immobility time administered once daily for 7 days measured for last 4 mins of 6 mins test at 1 hr post last dose by forced swim test. It counts as functional, organism-based.
Series [10] concerns Mus musculus. The experiment in a line: Antidepressant-like activity in mouse assessed as reduction in immobility time at 10 mg/kg/day, po once daily for 7 days measured for last 4 mins of 6 mins test at 1 hr post last dose by forced swim test relative to control. The class given is functional. Details: scale not given: the % may be the effect or the level left.
For series [11], the system named is Mus musculus. The experiment in a line: Antidepressant-like activity in mouse assessed as reduction in immobility time at 40 mg/kg/day, po once daily for 7 days measured for last 4 mins of 6 mins test at 1 hr post last dose by forced swim test relative to control. It counts as functional. Details: scale not given: the % may be the effect or the level left.
The subject of series [12] is Mus musculus. Description: Antidepressant-like activity in mouse assessed as reduction in immobility time at 20 mg/kg/day, po once daily for 7 days measured for last 4 mins of 6 mins test at 1 hr post last dose by forced swim test relative to control. The class given is functional. Details: scale not given: the % may be the effect or the level left.
Series [13] has as its target Sodium-dependent serotonin transporter (Homo sapiens, UniProt P31645).
Description: Inhibition of serotonin reuptake in SERT (unknown origin)

A value given as a limit tells only on which side of the number the result lay.

As usually defined, the inhibition is the relative decrease from the control value, in per cent. By IC50 is commonly meant the concentration that inhibits the measured activity by half. Broadly, the Ki is the dissociation constant of the complex between target and ligand, obtained from inhibition or displacement. Broadly, the half-life is how long it takes for the measured level to halve.

Sequence of Sodium-dependent serotonin transporter (Rattus norvegicus) (P31652 whole entry): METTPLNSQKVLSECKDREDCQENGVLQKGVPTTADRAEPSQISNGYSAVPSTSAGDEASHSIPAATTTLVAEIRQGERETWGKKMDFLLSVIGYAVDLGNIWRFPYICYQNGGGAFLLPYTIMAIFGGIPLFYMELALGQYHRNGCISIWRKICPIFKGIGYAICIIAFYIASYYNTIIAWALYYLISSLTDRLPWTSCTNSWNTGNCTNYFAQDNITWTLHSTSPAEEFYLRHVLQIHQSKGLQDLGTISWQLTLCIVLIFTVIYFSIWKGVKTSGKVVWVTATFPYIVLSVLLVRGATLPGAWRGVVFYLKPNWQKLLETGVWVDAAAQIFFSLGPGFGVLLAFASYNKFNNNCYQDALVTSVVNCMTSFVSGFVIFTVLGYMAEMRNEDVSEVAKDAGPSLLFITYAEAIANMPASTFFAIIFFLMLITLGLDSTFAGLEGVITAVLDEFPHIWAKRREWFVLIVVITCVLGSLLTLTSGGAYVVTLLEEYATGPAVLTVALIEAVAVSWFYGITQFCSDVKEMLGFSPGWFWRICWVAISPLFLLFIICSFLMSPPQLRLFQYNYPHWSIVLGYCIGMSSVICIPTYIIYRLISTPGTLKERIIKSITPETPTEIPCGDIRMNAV
Sequence of Sodium-dependent serotonin transporter (Rattus norvegicus, UniProt P31652) (P31652 whole entry): as above
T2 sequence (P34969 whole entry): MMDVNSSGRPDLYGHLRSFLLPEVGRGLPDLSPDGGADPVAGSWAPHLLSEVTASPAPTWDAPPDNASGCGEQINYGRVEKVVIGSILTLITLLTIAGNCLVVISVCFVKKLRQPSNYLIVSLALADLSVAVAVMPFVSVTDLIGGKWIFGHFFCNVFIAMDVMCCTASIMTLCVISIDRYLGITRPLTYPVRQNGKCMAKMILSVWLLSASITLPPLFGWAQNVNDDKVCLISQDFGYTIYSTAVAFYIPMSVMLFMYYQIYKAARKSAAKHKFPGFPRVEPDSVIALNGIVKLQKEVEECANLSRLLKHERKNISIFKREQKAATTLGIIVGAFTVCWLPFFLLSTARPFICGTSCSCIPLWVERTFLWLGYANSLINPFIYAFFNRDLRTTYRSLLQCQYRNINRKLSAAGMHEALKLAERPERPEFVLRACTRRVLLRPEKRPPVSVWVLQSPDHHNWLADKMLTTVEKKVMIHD
Sequence of Sodium-dependent serotonin transporter (Homo sapiens, UniProt P31645) (P31645 whole entry): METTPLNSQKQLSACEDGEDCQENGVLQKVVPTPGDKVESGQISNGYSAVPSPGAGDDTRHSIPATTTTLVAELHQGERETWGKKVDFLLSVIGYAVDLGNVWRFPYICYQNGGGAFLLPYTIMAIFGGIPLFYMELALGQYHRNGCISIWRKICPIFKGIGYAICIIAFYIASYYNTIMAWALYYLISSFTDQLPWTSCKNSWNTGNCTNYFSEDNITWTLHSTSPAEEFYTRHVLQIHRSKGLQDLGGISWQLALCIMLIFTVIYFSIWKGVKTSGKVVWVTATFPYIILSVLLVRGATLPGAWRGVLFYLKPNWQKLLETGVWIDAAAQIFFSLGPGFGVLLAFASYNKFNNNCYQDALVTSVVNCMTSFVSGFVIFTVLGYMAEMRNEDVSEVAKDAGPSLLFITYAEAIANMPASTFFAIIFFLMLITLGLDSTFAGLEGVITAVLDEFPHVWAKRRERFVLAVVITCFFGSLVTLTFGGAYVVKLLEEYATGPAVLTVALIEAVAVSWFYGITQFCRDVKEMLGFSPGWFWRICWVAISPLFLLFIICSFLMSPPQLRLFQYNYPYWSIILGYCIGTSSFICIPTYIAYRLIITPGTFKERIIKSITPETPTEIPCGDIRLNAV
Description for in vitro: Half life in rat liver microsomes at 1 uM in presence of NADPH by LC-MS/MS analysis

As to `COc1ccc(-c2ccccc2N2CCN(CCc3c[nH]c4ccc(F)cc34)CC2)cc1`, the values for the inhibition in series [1], in series [2] and in series [3] were 99.2%, 82.8% and 94.7%, respectively.
Consider `Fc1ccc2[nH]cc(CCN3CCN(c4ccccc4-c4ccccc4F)CC3)c2c1`, for which the inhibition in series [1], in series [2] and in [3] was above 90% each time. In addition, the IC50 in series [4] was found to be 96 nM. In addition, the Ki was determined as 2.3 nM in series [5] and 25 nM in series [6]. In “in vitro”, this compound yielded a half-life at 1 µM of 4 min. Also, the microsomal CLint at 1 µM in [7] amounted to 343 µL/min/mg.
As to `N#Cc1ccc(-c2ccccc2N2CCN(CCc3c[nH]c4ccc(F)cc34)CC2)cc1`, the inhibition in series [1] was found to be 99.5%; in [2], 84.2%; in [3], 97.3%.
As to `Fc1cccc(-c2ccccc2N2CCN(CCCc3c[nH]c4ccc(F)cc34)CC2)c1`, the inhibition in series [1], in series [2] and in [3] was above 90% in each case. The compound also gave an IC50 in [4] of 42 nM. In addition, the Ki in [5] stood at 1.1 nM; in series [6], 8.1 nM. In addition, in the series “in vitro”, the half-life at 1 µM is 27.7 min. Besides, the microsomal CLint at 1 µM in [7] turned out to be 50 µL/min/mg.
`N#Cc1ccc2[nH]cc(CCN3CCN(c4ccccc4-c4ccccc4)CC3)c2c1`: the inhibition in [1] is 97.6%; in [2], above 90%; in series [3] it was 93.7%. The compound further registered an IC50 in series [4] of 190 nM.
Turning to `Fc1ccc2[nH]cc(CCCN3CCN(c4ccccc4-c4ccccc4)CC3)c2c1`, the inhibition in series [1], in series [2] and in series [3] was above 90% throughout. This compound yielded an IC50 in series [4] of 7.6 nM. The figures for the Ki in [5] and in [6] were 1.1 nM and 13 nM, respectively.
For the compound `COc1ccc(C(CN(C)C)C2(O)CCCCC2)cc1` (stereo not given) [VENLAFAXINE], the Activity in the series with Mus musculus [8] was determined as 35%.
For `Fc1cccc(-c2c(F)cccc2N2CCN(CCCc3c[nH]c4ccc(F)cc34)CC2)c1`, the inhibition in series [1], in series [2] and in series [3] was above 90% each time. The compound further had an IC50 in [4] of 10 nM. Besides, the inhibition constant Ki in series [5] was determined as 0.55 nM; in series [6] it was 18 nM. Also, in “in vitro”, the half-life at 1 µM came out at 26.9 min. For the same compound, the microsomal CLint at 1 µM in [7] was determined as 51.5 µL/min/mg.
As to `c1ccc(-c2ccccc2N2CCN(CCc3coc4ccccc34)CC2)cc1`, the inhibition was 99.5% in series [1], above 90% in series [2] and 102% in series [3]. The same compound returned an IC50 in series [4] of 210 nM.
On to `c1ccc(-c2cccc(N3CCN(CCc4coc5ccccc45)CC3)c2)cc1`, for which the inhibition was 97.5% in [1], 99.4% in series [2] and 71.9% in series [3].
On to `Fc1cccc(-c2cc(F)ccc2N2CCN(CCCc3c[nH]c4ccc(F)cc34)CC2)c1`, for which the inhibition in series [1], in [2] and in [3] was above 90% each time. Moreover, half-maximal inhibition in [4] (IC50) was put at 31 nM. The Ki in series [5] turned out to be 12 nM; in [6], 62 nM. In addition, in “in vitro”, the half-life at 1 µM was 56.8 min. The Activity entry in the series with Mus musculus [9] is “Dose-dependent effect”; with Mus musculus [10] it was 18%; in the series with Mus musculus [11], 37%; with Mus musculus [12], 21%. In addition, the microsomal CLint at 1 µM in [7] turned out to be 24.4 µL/min/mg.
Regarding `Cc1cccc(-c2ccccc2N2CCN(CCc3c[nH]c4ccc(F)cc34)CC2)c1`, the results for the inhibition in [1], in series [2] and in series [3] were 98.1%, above 90% and 97.3%, respectively. Further, the IC50 in series [4] is 160 nM.
For `Cc1ccc(Sc2ccccc2N2CCNCC2)c(C)c1` [VORTIOXETINE], in the series on Mus musculus [11], the Activity is 48 - 52%.
Turning to `COc1ccccc1N1CCN(CCc2coc3ccccc23)CC1`, the inhibition was found to be 98.5% in [1], 110% in [2] and 85.6% in series [3].
As to `Cc1ccc(-c2ccccc2N2CCN(CCc3c[nH]c4ccc(F)cc34)CC2)cc1`, the inhibition is 101% in series [1], above 90% in series [2] and 99.5% in [3]. This compound also showed an IC50 in series [4] of 1700 nM.
In [13], `Fc1cc2c(c(OCCNCCCc3c[nH]c4ccc(F)cc34)c1)OCCC2` returned a Ki of 0.47 nM.
`COc1ccccc1N1CCN(CCCN2CCOc3ccccc32)CC1` returned a Ki in series [13] of 195 nM.
For the compound `c1ccc(-c2ccccc2N2CCN(CCc3cc4ccccc4o3)CC2)cc1`, the inhibition in [1] was 97.7%; in [2], above 90%; in series [3] it was 96.4%. In series [4], the IC50 amounted to 2900 nM.
For the compound `Fc1cccc(-c2ccc(F)cc2N2CCN(CCCc3c[nH]c4ccc(F)cc34)CC2)c1`, the inhibition in series [1], in series [2] and in series [3] was above 90% in each case. In series [4], the IC50 turned out to be 9.4 nM. The Ki came to 2.6 nM in series [5] and 15 nM in series [6]. The half-life at 1 µM in “in vitro” worked out at 28.8 min. Further, the microsomal CLint at 1 µM in series [7] is 48.1 µL/min/mg.
Consider `Fc1cccc(-c2ccccc2N2CCN(CCc3c[nH]c4ccc(F)cc34)CC2)c1`, for which the inhibition in series [1] is above 90%; in series [2], above 90%; in series [3], 0.79%. The same compound displayed an IC50 in series [4] of 150 nM. The Ki is 0.79 nM in series [5] and 5.6 nM in series [6]. Also, in “in vitro”, the half-life at 1 µM was 9 min. The microsomal CLint at 1 µM in [7] is 155 µL/min/mg.
Regarding `Fc1ccc2[nH]cc(CCN3CCN(c4ccccc4-c4ccccc4)CC3)c2c1`, the inhibition in series [1], in series [2] and in series [3] was above 90% throughout. The IC50 in series [4] turned out to be 110 nM. The results for the Ki in series [5] and in [6] were 0.26 nM and 0.53 nM, respectively. The compound further had a half-life at 1 µM in the series “in vitro” of 6.1 min. Besides, in series [7], the microsomal CLint at 1 µM is 226 µL/min/mg.
Regarding `Fc1cccc(-c2cc(F)ccc2N2CCN(CCCCc3c[nH]c4ccc(F)cc34)CC2)c1`, the inhibition in series [1] was 96%; in [2] it was above 90%; in [3], 97.5%. In [4], the IC50 is 120 nM.
Take `Fc1ccc(-c2ccccc2N2CCN(CCc3c[nH]c4ccc(F)cc34)CC2)cc1`: the inhibition was 101% in [1], above 90% in series [2] and 94.9% in series [3]. The IC50 in [4] worked out at 590 nM. The compound further came in with a half-life at 1 µM in “in vitro” of 9.6 min. The microsomal CLint at 1 µM in series [7] turned out to be 144 µL/min/mg.
Consider `CSc1ccccc1N1CCN(CCc2coc3ccccc23)CC1`, for which the inhibition was 99.7% in series [1], 112% in series [2] and 86.8% in series [3].
